# Assays:
# [1] = system: E. coli ATCC 25922 (SEN) and E. coli NCTC13846 (MDR); test: Adaptive laboratory evolution (ALE), relative MIC of evolved lines; type: cell-based, Escherichia coli
# Method in brief: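 Ten parallel populations per antibiotic–ancestor pair were evolved in MHB at 37 °C, starting near 50% growth-inhibiting drug. Every 72 h they were passaged into 0.5–2.5× increasing concentrations, keeping the highest-drug well with OD600 > 0.2.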
# [2] = system: P. aeruginosa ATCC BAA-3107 (SEN) and P. aeruginosa LESB58 (MDR); test: microbe, parasite or virus in culture; type: cell-based, Pseudomonas aeruginosa; conditions: for MIC: across three biological replicates
# Method in brief: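 Cation-adj. MHB2 (not for SCH79797); 11–16-step dilution series; 5 × 10^5 cells/mL; 37 °C, shaking, 18 h; duplicates. Growth by OD600; MIC at OD600 < 0.05. Relative MIC: evolved vs ancestor.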
# [3] = EC-MDR (Escherichia coli NCTC 13846), evolved line 4
# [4] = EC-MDR (Escherichia coli NCTC 13846), evolved line 8
# [5] = EC-MDR (Escherichia coli NCTC 13846), evolved line 9
# [6] = EC-MDR (Escherichia coli NCTC 13846), evolved line 10
# [7] = EC-SEN (Escherichia coli ATCC 25922), evolved line 7
# [8] = EC-SEN (Escherichia coli ATCC 25922), evolved line 8
# [9] = EC-SEN (Escherichia coli ATCC 25922), evolved line 10
smiles,measurement,setting,value
C[C@@H](O)[C@H]1C(=O)N2C(C(=O)O)=C(S[C@H]3CC[S@@+]([O-])C3)S[C@H]12 [Sulopenem],MIC of evolved line,"[1]; EC-MDR (E. coli NCTC 13846), evolved line 1 of the given antibiotic",16 µg/mL
same,Relative MIC,"[1]; EC-MDR (E. coli NCTC 13846), evolved line 1 vs ancestor",512
same,MIC of evolved line,"[1]; EC-MDR (E. coli NCTC 13846), evolved line 2 of the given antibiotic",0.5 µg/mL
same,Relative MIC,"[1]; EC-MDR (E. coli NCTC 13846), evolved line 2 vs ancestor",16
same,MIC of evolved line,"[1]; EC-MDR (E. coli NCTC 13846), evolved line 3 of the given antibiotic",4 µg/mL
same,Relative MIC,"[1]; EC-MDR (E. coli NCTC 13846), evolved line 3 vs ancestor",128
same,MIC of evolved line,"[1]; EC-MDR (E. coli NCTC 13846), evolved line 4 of the given antibiotic",4 µg/mL
same,Relative MIC,"[1]; EC-MDR (E. coli NCTC 13846), evolved line 4 vs ancestor",128
same,MIC of evolved line,"[1]; EC-MDR (E. coli NCTC 13846), evolved line 5 of the given antibiotic",16 µg/mL
same,Relative MIC,"[1]; EC-MDR (E. coli NCTC 13846), evolved line 5 vs ancestor",512
same,MIC of evolved line,"[1]; EC-MDR (E. coli NCTC 13846), evolved line 7 of the given antibiotic",0.5 µg/mL
same,Relative MIC,"[1]; EC-MDR (E. coli NCTC 13846), evolved line 7 vs ancestor",16
same,MIC of evolved line,"[1]; EC-MDR (E. coli NCTC 13846), evolved line 8 of the given antibiotic",4 µg/mL
same,Relative MIC,"[1]; EC-MDR (E. coli NCTC 13846), evolved line 8 vs ancestor",128
same,MIC of evolved line,"[1]; EC-MDR (E. coli NCTC 13846), evolved line 9 of the given antibiotic",8 µg/mL
same,Relative MIC,"[1]; EC-MDR (E. coli NCTC 13846), evolved line 9 vs ancestor",256
same,MIC of evolved line,"[1]; EC-MDR (E. coli NCTC 13846), evolved line 10 of the given antibiotic",4 µg/mL
same,Relative MIC,"[1]; EC-MDR (E. coli NCTC 13846), evolved line 10 vs ancestor",128
same,Relative MIC (log10),[1]; [3],2.107 log10
same,Relative MIC (log10),"[1]; EC-MDR (Escherichia coli NCTC 13846), evolved line 5",2.709 log10
same,Relative MIC (log10),[1]; [4],2.107 log10
same,Relative MIC (log10),[1]; [5],2.408 log10
same,Relative MIC (log10),[1]; [6],2.107 log10
same,MIC of evolved line,"[1]; EC-SEN (E. coli ATCC 25922), evolved line 5 of the given antibiotic",0.25 µg/mL
same,Relative MIC,"[1]; EC-SEN (E. coli ATCC 25922), evolved line 5 vs ancestor",8
same,MIC of evolved line,"[1]; EC-SEN (E. coli ATCC 25922), evolved line 6 of the given antibiotic",0.25 µg/mL
same,Relative MIC,"[1]; EC-SEN (E. coli ATCC 25922), evolved line 6 vs ancestor",8
same,MIC of evolved line,"[1]; EC-SEN (E. coli ATCC 25922), evolved line 7 of the given antibiotic",0.25 µg/mL
same,Relative MIC,"[1]; EC-SEN (E. coli ATCC 25922), evolved line 7 vs ancestor",8
same,MIC of evolved line,"[1]; EC-SEN (E. coli ATCC 25922), evolved line 8 of the given antibiotic",0.25 µg/mL
same,Relative MIC,"[1]; EC-SEN (E. coli ATCC 25922), evolved line 8 vs ancestor",8
same,MIC of evolved line,"[1]; EC-SEN (E. coli ATCC 25922), evolved line 9 of the given antibiotic",0.125 µg/mL
same,Relative MIC,"[1]; EC-SEN (E. coli ATCC 25922), evolved line 9 vs ancestor",4
same,MIC of evolved line,"[1]; EC-SEN (E. coli ATCC 25922), evolved line 10 of the given antibiotic",0.125 µg/mL
same,Relative MIC,"[1]; EC-SEN (E. coli ATCC 25922), evolved line 10 vs ancestor",4
same,Relative MIC (log10),"[1]; EC-SEN (Escherichia coli ATCC 25922), evolved line 6",0.9031 log10
same,Relative MIC (log10),[1]; [7],0.9031 log10
same,Relative MIC (log10),[1]; [8],0.9031 log10
same,Relative MIC (log10),"[1]; EC-SEN (Escherichia coli ATCC 25922), evolved line 9",0.6021 log10
same,Relative MIC (log10),[1]; [9],0.6021 log10
same,Relative MIC,"[1]; Escherichia coli ATCC 25922 (EC-SEN), evolved line 5",8
same,Relative MIC,"[1]; Escherichia coli ATCC 25922 (EC-SEN), evolved line 6",8
same,Relative MIC,"[1]; Escherichia coli ATCC 25922 (EC-SEN), evolved line 7",8
same,Relative MIC,"[1]; Escherichia coli ATCC 25922 (EC-SEN), evolved line 8",8
same,Relative MIC,"[1]; Escherichia coli ATCC 25922 (EC-SEN), evolved line 9",4
same,Relative MIC,"[1]; Escherichia coli ATCC 25922 (EC-SEN), evolved line 10",4
same,Relative MIC,"[1]; Escherichia coli NCTC 13846 (EC-MDR), evolved line 1",512
same,Relative MIC,"[1]; Escherichia coli NCTC 13846 (EC-MDR), evolved line 2",16
same,Relative MIC,"[1]; Escherichia coli NCTC 13846 (EC-MDR), evolved line 3",128
same,Relative MIC,"[1]; Escherichia coli NCTC 13846 (EC-MDR), evolved line 4",128
same,Relative MIC,"[1]; Escherichia coli NCTC 13846 (EC-MDR), evolved line 5",512
same,Relative MIC,"[1]; Escherichia coli NCTC 13846 (EC-MDR), evolved line 7",16
same,Relative MIC,"[1]; Escherichia coli NCTC 13846 (EC-MDR), evolved line 8",128
same,Relative MIC,"[1]; Escherichia coli NCTC 13846 (EC-MDR), evolved line 9",256
same,Relative MIC,"[1]; Escherichia coli NCTC 13846 (EC-MDR), evolved line 10",128
same,MIC,[2]; Pseudomonas aeruginosa ATCC BAA-3107 (PA-SEN),16 µg/mL
same,MIC,[2]; Pseudomonas aeruginosa LESB 58 (PA-MDR),>32 µg/mL
O=c1ccc2ncc(=O)n3c2n1C[C@H]3CN1CCC(NCc2cc3c(cn2)OCCC3)CC1 [Gepotidacin],Relative MIC,"[1]; EC-MDR (Escherichia coli NCTC 13846), evolved line 2",32
same,Relative MIC (log10),"[1]; EC-MDR (Escherichia coli NCTC 13846), evolved line 2 adapted to the named antibiotic",1.505
same,Relative MIC,[1]; [3],16
same,Relative MIC (log10),"[1]; EC-MDR (Escherichia coli NCTC 13846), evolved line 4 adapted to the named antibiotic",1.204
same,Relative MIC (log10),"[1]; EC-MDR (Escherichia coli NCTC 13846), evolved line 6 adapted to the named antibiotic",1.505
same,Relative MIC (log10),"[1]; EC-MDR (Escherichia coli NCTC 13846), evolved line 7 adapted to the named antibiotic",1.505
same,Relative MIC,[1]; [4],16
same,Relative MIC,[1]; [5],32
same,Relative MIC (log10),"[1]; EC-MDR (Escherichia coli NCTC 13846), evolved line 9 adapted to the named antibiotic",1.505
same,Relative MIC,[1]; [6],32
same,Relative MIC,"[1]; EC-MDR, Escherichia coli NCTC 13846, evolved line 1 versus ancestor",16
same,Relative MIC,"[1]; EC-MDR, Escherichia coli NCTC 13846, evolved line 2 versus ancestor",32
same,Relative MIC,"[1]; EC-MDR, Escherichia coli NCTC 13846, evolved line 3 versus ancestor",8
same,Relative MIC,"[1]; EC-MDR, Escherichia coli NCTC 13846, evolved line 4 versus ancestor",16
same,Relative MIC,"[1]; EC-MDR, Escherichia coli NCTC 13846, evolved line 6 versus ancestor",32
same,Relative MIC,"[1]; EC-MDR, Escherichia coli NCTC 13846, evolved line 7 versus ancestor",32
same,Relative MIC,"[1]; EC-MDR, Escherichia coli NCTC 13846, evolved line 8 versus ancestor",16
same,Relative MIC,"[1]; EC-MDR, Escherichia coli NCTC 13846, evolved line 9 versus ancestor",32
same,Relative MIC,"[1]; EC-MDR, Escherichia coli NCTC 13846, evolved line 10 versus ancestor",32
same,Relative MIC,"[1]; EC-MDR, Escherichia coli NCTC 13846, evolved line 1",16
same,Relative MIC,"[1]; EC-MDR, Escherichia coli NCTC 13846, evolved line 3",8
same,Relative MIC,"[1]; EC-MDR, Escherichia coli NCTC 13846, evolved line 6",32
same,Relative MIC,"[1]; EC-MDR, Escherichia coli NCTC 13846, evolved line 7",32
same,Relative MIC (log10),"[1]; EC-SEN (Escherichia coli ATCC 25922), evolved line 1 adapted to the named antibiotic",2.107
same,Relative MIC (log10),"[1]; EC-SEN (Escherichia coli ATCC 25922), evolved line 2 adapted to the named antibiotic",1.806
same,Relative MIC,"[1]; EC-SEN (Escherichia coli ATCC 25922), evolved line 4",128
same,Relative MIC (log10),"[1]; EC-SEN (Escherichia coli ATCC 25922), evolved line 4 adapted to the named antibiotic",2.107
same,Relative MIC,"[1]; EC-SEN (Escherichia coli ATCC 25922), evolved line 5",128
same,Relative MIC (log10),"[1]; EC-SEN (Escherichia coli ATCC 25922), evolved line 5 adapted to the named antibiotic",2.107
same,Relative MIC,[1]; [7],64
same,Relative MIC,[1]; [8],4
same,Relative MIC,[1]; [9],128
same,Relative MIC,"[1]; EC-SEN, Escherichia coli ATCC 25922, evolved line 1 versus ancestor",128
same,Relative MIC,"[1]; EC-SEN, Escherichia coli ATCC 25922, evolved line 2 versus ancestor",64
same,Relative MIC,"[1]; EC-SEN, Escherichia coli ATCC 25922, evolved line 4 versus ancestor",128
same,Relative MIC,"[1]; EC-SEN, Escherichia coli ATCC 25922, evolved line 5 versus ancestor",128
same,Relative MIC,"[1]; EC-SEN, Escherichia coli ATCC 25922, evolved line 7 versus ancestor",64
same,Relative MIC,"[1]; EC-SEN, Escherichia coli ATCC 25922, evolved line 8 versus ancestor",4
same,Relative MIC,"[1]; EC-SEN, Escherichia coli ATCC 25922, evolved line 10 versus ancestor",128
same,Relative MIC,"[1]; EC-SEN, Escherichia coli ATCC 25922, evolved line 1",128
same,Relative MIC,"[1]; EC-SEN, Escherichia coli ATCC 25922, evolved line 2",64
same,MIC of ancestor,"[2]; P. aeruginosa ATCC BAA 3107 (PA-SEN), ancestor strain, sheet fig 2a",4 µg/mL
same,MIC of ancestor,"[2]; P. aeruginosa LESB 58 (PA-MDR), ancestor strain, sheet fig 2a",4 µg/mL
same,MIC of ancestor,"[2]; PA-MDR, Pseudomonas aeruginosa LESB 58, ancestor strain",4 µg/mL
same,MIC of ancestor,"[2]; PA-SEN, Pseudomonas aeruginosa ATCC BAA 3107, ancestor strain",4 µg/mL
same,MIC,"[2]; Pseudomonas aeruginosa, ATCCBAA3107, Pseudomonas aeruginosa ATCC BAA-3107 (PA-SEN)",4 µg/mL
same,MIC,"[2]; Pseudomonas aeruginosa, ATCCBAA3107, Pseudomonas aeruginosa LESB 58 (PA-MDR)",4 µg/mL
